Where a SMILES comes first, the peptide text is derived from it. [ ]: non-standard residue; d: D form. The star is where a group is joined. Phe(Nα-CONH2) = NC(=O)N[C@@H](Cc1ccccc1)C(=O)*; NMeI = CC[C@H](C)[C@H](NC)C(=O)O; X1 = CN(/C=C\c1c[nH]c2ccccc12)*; NMeL = CN[C@@H](CC(C)C)C(=O)O; NMeV = CN[C@H](C(=O)O)C(C)C; NMeA = CN[C@@H](C)C(=O)O; For = O=C*
Columns and labels:
[1] = test system: Plasmodium falciparum; assay: Antimalarial activity against blood stage chloroquine-sensitive Plasmodium falciparum 3D7 assessed as reduction in parasite growth incubated for 72 hrs by SYBR Green dye based fluorescence assay; type: functional, organism-based; conditions: 3D7, 72 h
[2] = test system: Plasmodium falciparum; assay: Antimalarial activity against blood stage chloroquine-resistant Plasmodium falciparum Dd2 assessed as reduction in parasite growth incubated for 72 hrs by SYBR Green dye based fluorescence assay; type: functional, organism-based; conditions: Dd2, 72 h
[3] = Cytotoxicity against mouse J774 cells assessed as reduction in cell viability incubated for 68 hrs by CellTiter96 Aqueous One Solution Cell Proliferation Assay; type: toxicity, cell-based
[4] = test system: Plasmodium falciparum; assay: Antimalarial activity against blood stage chloroquine-sensitive Plasmodium falciparum NF54 assessed as reduction in parasite growth incubated for 72 hrs by SYBR Green dye based fluorescence assay; type: functional, organism-based; conditions: NF54, 72 h

| SMILES | IC50 [1] [µM] | IC50 [2] [µM] | IC50 at 68 h [3] [µM] | IC50 [4] [µM] |
| --- | --- | --- | --- | --- |
| CC[C@H](C)[C@@H](C(N)=O)N(C)C(=O)[C@H](C(C)C)N(C)C(=O)[C@H](CC(C)C)N(C)C(=O)[C@H](Cc1ccccc1)N(C)C(=O)[C@H](Cc1ccccc1)NC=O | 2.1 | 1.72 | > 20 | 2.61 |
| CC[C@H](C)[C@@H](C(=O)NC)N(C)C(=O)[C@H](C)N(C)C(=O)[C@H](C(C)C)N(C)C(=O)[C@H](C(C)C)N(C)C(=O)[C@H](C)N(C)C(=O)[C@H](C(C)C)N(C)C(=O)[C@H](C(C)C)N(C)C(=O)[C@H](C)N(C)C(=O)[C@H](C)NC(C)=O (Ac-A[NMeA][NMeV][NMeV][NMeA][NMeV][NMeV][NMeA][NMeI]-NHMe) | > 10 | > 10 | > 20 | > 10 |
| CC[C@H](C)[C@@H](C(=O)N(C)/C=C\c1c[nH]c2ccccc12)N(C)C(=O)[C@H](C(C)C)N(C)C(=O)[C@H](C(C)C)N(C)C(=O)[C@H](CC(C)C)N(C)C(=O)[C@@H]1CCCN1C(=O)[C@H](Cc1ccccc1)NC(=O)[C@H](Cc1ccccc1)NC(C)=O (Ac-FFP[NMeL][NMeV][NMeV][NMeI]-X1) | 8.65 | 3.3 | > 20 | 3.93 |
| CC[C@H](C)[C@@H](C(=O)N(C)[C@@H](C)C(=O)N(C)[C@H](C(N)=O)C(C)C)N(C)C(=O)[C@H]([C@@H](C)CC)N(C)C(=O)[C@H](C)N(C)C(=O)[C@H](C(C)C)N(C)C(=O)[C@H](C)N(C)C(=O)[C@@H](NC(C)=O)C(C)C (Ac-V[NMeA][NMeV][NMeA][NMeI][NMeI][NMeA][NMeV]-NH2) | > 10 | > 10 | > 20 | > 10 |
| CNC(=O)[C@H](C(C)C)N(C)C(=O)[C@H](C(C)C)N(C)C(=O)[C@H](C(C)C)N(C)C(=O)[C@H](C)N(C)C(=O)[C@H](C)N(C)C(=O)[C@H](CC(C)C)N(C)C(=O)[C@H](C(C)C)N(C)C(=O)[C@H](Cc1ccccc1)NC=O (For-F[NMeV][NMeL][NMeA][NMeA][NMeV][NMeV][NMeV]-NHMe) | 2.52 | 1.07 | > 20 | 3.73 |
| CC[C@H](C)[C@@H](C(=O)N(C)[C@H](C(=O)NC)[C@@H](C)CC)N(C)C(=O)[C@H](C(C)C)N(C)C(=O)[C@H](C)N(C)C(=O)[C@H](C(C)C)N(C)C(=O)[C@H](C(C)C)N(C)C(=O)[C@@H](NC=O)C(C)C (For-V[NMeV][NMeV][NMeA][NMeV][NMeI][NMeI]-NHMe) | > 10 | 4.37 | > 20 | > 10 |
| CNC(=O)[C@H](C(C)C)N(C)C(=O)[C@H](C(C)C)N(C)C(=O)[C@H](C(C)C)N(C)C(=O)[C@H](C)N(C)C(=O)[C@H](C)N(C)C(=O)[C@H](CC(C)C)N(C)C(=O)[C@H](C(C)C)N(C)C(=O)[C@H](Cc1ccccc1)NC(N)=O ({Phe(Nα-CONH2)}-[NMeV][NMeL][NMeA][NMeA][NMeV][NMeV][NMeV]-NHMe) | > 10 | 2.02 | > 20 | 3.05 |
